Test results published in patent US8709811B2, “Materials and methods for synthesis of a flavor and aroma volatile in plants” (University of Florida Research Foundation, Inc., priority 2003, dated 2014).
Entries after “also recorded” stand apart in the source; their conditions may differ.

Columns and labels:
[1] = concentration X humans' ability to detect; cited from earlier work
[2] = trained expert panel; cited from earlier work
[3] = test system: 2-phenylethanol dehydrogenase (full-length cLET2M9); assay type: biochemical, tomato; conditions: GST-tagged enzyme, decrease in OD340
Procedure: A full-length 2-phenylethanol dehydrogenase cDNA was cloned by 5′ RACE from tomato fruit cDNA using primer 5′-[…]-3′ (SEQ ID NO: 3). Following sequence analysis the full-length cDNA was obtained by PCR. The coding region was cloned into vector pDEST15 containing a GST tag (Invitrogen) by recombination, and transformed into E. coli strain BL21-SI (Invitrogen) for inducible protein expression. Enzyme activity of crude E. coli extracts was determined by the method of Larroy et al. (2002) using phenylacetaldehyde, cinnamaldehyde or vanillin as a substrate.
The 2-phenylethanol dehydrogenase coding region of the full-length cLET2M9 and the related cLEG71F12 were cloned in vector pDEST15 with a GST tag and transformed into E. coli BL21-SI cells for inducible expression. The production of recombinant protein in E. coli was determined by Western blotting with an anti-GST antibody.

[4] = biological target: LePEDH (tomato 2-phenylethanol dehydrogenase, full-length cLET2M9) (Solanum lycopersicum, UniProt A6N6K7); test: Alcohol dehydrogenase activity of E. coli expressed His-tagged LePEDH on phenylacetaldehyde and related substrates (Km); assay type: biochemical; conditions: His tag
LePEDH (tomato 2-phenylethanol dehydrogenase, full-length cLET2M9), sequence (A6N6K7 entry or part of it): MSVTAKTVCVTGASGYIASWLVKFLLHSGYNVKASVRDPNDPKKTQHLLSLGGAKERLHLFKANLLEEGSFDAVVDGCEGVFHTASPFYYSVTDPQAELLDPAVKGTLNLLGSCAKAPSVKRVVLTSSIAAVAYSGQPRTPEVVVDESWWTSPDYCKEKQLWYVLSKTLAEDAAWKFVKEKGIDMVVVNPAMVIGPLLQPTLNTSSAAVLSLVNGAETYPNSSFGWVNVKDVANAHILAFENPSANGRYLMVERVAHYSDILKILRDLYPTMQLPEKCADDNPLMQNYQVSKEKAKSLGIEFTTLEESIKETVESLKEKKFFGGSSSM
Procedure: The 2-phenylethanol dehydrogenase coding region of the full-length cLET2M9 was cloned in vector pDEST17 with a His tag and transformed into E. coli BL21-AI cells for inducible expression. Alcohol dehydrogenase activities on phenylacetaldehyde and several related substrates were determined.

Row | Compound | Log odor units [1] | Odor Characteristics [2] | Alcohol dehydrogenase activity level as substrate [3] | Alcohol dehydrogenase activity level as substrate [4]
1 | C/C=C/C(=O)C1=C(C)C=CCC1(C)C [β-Damascenone] | 2.7 | Fruity |  | 
2 | O=CCc1ccccc1 [Phenylacetaldehyde] | 0.6 | floral/alcohol | highest level of activity; also recorded: Highest activity levels | highest level of activity
3 | CCC/C=C/C=O [trans-2-Hexenal] | 1.2 | Green |  | 
4 | O=[N+]([O-])CCc1ccccc1 [1-nitro-2-Phenylethane] | 0.9 | musty, earthy |  | 
5 | COc1cc(C=O)ccc1O [vanillin] |  |  | negligible activity | 
6 | COC(=O)c1ccccc1O [Methyl salicylate] | 0.08 | wintergreen |  | 
7 | CC/C=C\CC=O [cis-3-Hexenal] | 3.7 | Tomato/green |  | 
8 | CC(=O)/C=C/C1=C(C)CCCC1(C)C [β-ionone] | 2.8 | fruity/floral |  | 
9 | O=C/C=C/c1ccccc1 [Cinnamaldehyde] |  |  | Lower activity levels | Lower activity levels
10 | CCCCCC=O [Hexanal] | 2.8 | green/grassy |  | 
11 | O=Cc1ccccc1 [Benzaldehyde] |  |  |  | Lower activity levels
12 | CC(C)Cc1nccs1 [2-Isobutylthiazole] | 1.0 | Tomato vine |  | 
13 | OCCc1ccccc1 [2-Phenylethanol] | 0.3 | Nutty |  | 
14 | O=Cc1ccccc1O [salicylaldehyde] |  |  |  | no detectable activity
15 | C=CC(=O)CC [1-Penten-3-one] | 2.7 | fruity; also recorded: floral/green |  | 
16 | CC(C)CCO [3-Methylbutanol] | 0.2 | earthy, musty |  | 
17 | CCCC/C=C/C=O [trans-2-Heptenal] | 0.7 | Green |  | 
18 | CC(=O)CCC=C(C)C [6-Methyl-5-hepten-2-one] | 0.4 | fruity, floral |  | 
